Test results taken from US20250152719A1, “FUSED IMIDE DERIVATIVE” (Chia Tai Tianqing Pharmaceutical Group Co., Ltd., priority 2021, published 2025).
pIC50: −log10 of the molar value. Read-outs that look alike come from different tables or passages of the source.

Assays:
BTK = BTK (Homo sapiens (Human), UniProt Q06187); assay: BTK degradation in OCI-LY10 cells (Total-BTK HTRF kit); type: cell-based; conditions: OCI-Ly10, OCI-LY10 cells, 24 (or 6) h incubation; maximum degradation rate
In short: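 OCI-LY10 cells seeded overnight, then treated with compound at 100 nM-0.098 nM in duplicate for 24 (or 6) h. Lysates probed by Total-BTK HTRF (d2/Eu cryptate antibodies, overnight, room temperature), read at 665/620 nm; DC50 and Dmax from four-parameter dose-response fits.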

TMD8-BTK(C481S) cells = assay: Inhibitory activity on TMD8-BTK(C481S) cell proliferation (CCK-8); type: cell-based; conditions: 72 h incubation
In short: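 Cells seeded at 8×10^4 cells/mL, incubated overnight, then treated in duplicate with compounds at 5000 nM-0.31 nM for 72 h. Viability by CCK-8 (4 h, absorbance 450 nm); IC50 from four-parameter dose-response fits.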

BTK(WT) kinase = BTK(WT) kinase (Homo sapiens (Human), UniProt Q06187); assay: Inhibitory activity on BTK(WT) kinase; type: biochemical; conditions: ATP 10 μM
Method: (§1) The Assay Buffer was prepared, and the composition of the Assay Buffer was 50 mM Hepes (Gibco, 15630), 10 mM MgCl2, 2 mM DTT, 1 mM EGTA, and 0.010% Tween 20. BTK(WT) kinase (Life, PR5442A), ATP (Sigma, A7699), and ULight-poly GT (PE, TRF0100-M) working solutions were prepared using the Assay Buffer. EDTA and Eu-labeled anti-phosphotyrosine (PT66) antibody (PE, AD0069) working solutions were prepared using the Detection Buffer (PE, CR97-100). 6 μL of BTK(WT) kinase at the corresponding concentration (final concentration: 0.003 ng/L) was added to the compound groups and the control group, while 6 μL of the Assay Buffer was added to the blank group, and then the compounds (with the concentration set to 1000 nM at the maximum, 4-fold dilution, 7 concentration gradients) were each added using a nanoliter pipettor. The mixture was incubated at room temperature for 30 min, and then 4 μL of the mixture of ATP (final concentration: 10 μM) and ULight-poly GT (final concentration: 100 nM) was added. After incubation at room temperature for 2 h, 5 μL of EDTA (final concentration: 10 mM) was added to stop the reaction, and finally 5 μL of antibody (final concentration: 2 nM) was added. After incubation at room temperature for 1 h, signal values were detected at 665/615 nM, the four-parameter analysis was performed, the dose-response curves were fit, and IC50 was calculated.

BTK(C481S) kinase = BTK(C481S) kinase (Homo sapiens (Human), UniProt Q06187, C481S); assay: Inhibitory activity on BTK(C481S) kinase; type: biochemical; conditions: ATP 10 μM
Method: as §1, with “BTK(C481S)” for “BTK(WT)”, “(Carna Biosciences, 08-547),” for “(Life, PR5442A),”, “Buffer.” for “Buffer (PE, CR97-100).”, “0.005 ng/μL)” for “0.003 ng/L)”, “were” for “were each”

EGFR kinase = EGFR kinase (Homo sapiens (Human), UniProt P00533); assay: Inhibitory activity on EGFR kinase; type: biochemical; conditions: ATP 5 μM
Method: The Assay Buffer was prepared, and the composition of the Assay Buffer was 50 mM Hepes (Gibco, 15630), 10 mM MgCl2, 2 mM DTT, 1 mM EGTA, and 0.010% Tween 20. EGFR kinase (Carna, 08-115), ATP (Sigma, A7699), and ULight-poly GT (PE, TRF0100-M) working solutions were prepared using the Assay Buffer. EDTA and Eu-labeled anti-phosphotyrosine (PT66) antibody (PE, AD0069) working solutions were prepared using the Detection Buffer. 6 μL of EGFR kinase at the corresponding concentration (final concentration: 0.006 ng/μL) was added to the compound groups and the control group, while 6 μL of the Assay Buffer was added to the blank group, and then the compounds (with the concentration set to 1000 nM at the maximum, 4-fold dilution, 7 concentration gradients) were added using a nanoliter pipettor. The mixture was incubated at room temperature for 30 min, and then 4 μL of the mixture of ATP (final concentration: 5 μM) and ULight-poly GT (final concentration: 100 nM) was added. After incubation at room temperature for 2 h, 5 μL of EDTA (final concentration: 10 mM) was added to stop the reaction, and finally 5 μL of antibody (final concentration: 2 nM) was added. After incubation at room temperature for 1 h, signal values were detected at 665/615 nM, the four-parameter analysis was performed, the dose-response curves were fit, and IC50 was calculated.

[1] = In vitro liver microsomal stability, mouse; conditions: 0.5 mg/mL microsomes, NADPH, 37° C., 1 h
Method: (§2) Liver microsome incubation samples were prepared by mixing a PBS buffer (pH 7.4), a liver microsome solution (0.5 mg/mL), a test compound, and an NADPH+MgCl2 solution and incubated at 37° C. and 300 rpm for 1 h. Zero-hour samples were prepared by mixing a PBS buffer (pH 7.4), a liver microsome solution (0.5 mg/mL), and a test compound. An acetonitrile solution containing an internal standard was added to the samples, and supernatants were prepared by protein precipitation, diluted, and then assayed by LC/MS/MS.

[2] = In vitro liver microsomal stability, human; type: in vitro ADME; conditions: 0.5 mg/mL microsomes, NADPH, 37° C., 1 h
Method: as §2

Mouse pharmacokinetics = type: in vivo, ICR mice; conditions: for AUC: read-out: AUC
Method: ICR mice weighing 18-22 g were randomized into groups of 9 after 3-5 days of acclimatization and then intragastrically given the test compound solution at a dose of 10 mg/kg. Plasma samples to be tested were prepared by taking blood from the orbit at time points of 15 min, 30 min, 1 h, 2 h, 3 h, 4 h, 6 h, 8 h, 10 h, and 24 h. 20 μL of each plasma sample to be detected and a standard curve sample were taken, and an acetonitrile solution containing an internal standard was added. […] Pharmacokinetic parameters were fitted using a non-compartmental model (see Table 5).

TMD-8 xenograft tumors = assay: In vivo drug efficacy, TMD-8 mouse subcutaneous xenograft tumors; set-up: species or system NOD-SCID mice; conditions: 30 mg/kg, qd, i.g.
Method: TMD-8 mouse subcutaneous xenograft tumors: TMD-8 (WT) cells at a concentration of 1×10^8/mL were inoculated under aseptic conditions into the right side armpit of NOD-SCID mice at 0.1 mL/mouse. After subcutaneous grafting, the animals were divided into groups with 6 animals in each group when the tumor volume reached about 188 mm^3 (or 200 mm^3):
model group: vehicle, 6 mice; compound administration groups: 30 mg/kg, qd, i.g., 6 mice.
The vehicle or the test compound was intragastrically given at a volume of 4 mL/kg, once daily for 16 consecutive days. The tumor volume was measured 2-3 times a week, and meanwhile, the mice were weighed and the data were recorded; the general behaviors of the animals were observed every day. After all dosing was complete, the animals were sacrificed on day 17, and the tumors were removed and weighed.
The tumor volume and the tumor growth inhibition were calculated using the following formulae:
Tumor volume (TV)=(Length×Width^2)/2.
Tumor growth inhibition (TGI)=(1−tumor weight of treatment group/tumor weight of model group)×100%.

[3] = ICR, mouse, plasma, iv, 1 mg/kg, Mouse i.v. 1 mpk
[4] = ICR, mouse, plasma, po, 10 mg/kg, Mouse i.g. 10 mpk

Sequence of BTK(WT) kinase (Q06187 whole entry): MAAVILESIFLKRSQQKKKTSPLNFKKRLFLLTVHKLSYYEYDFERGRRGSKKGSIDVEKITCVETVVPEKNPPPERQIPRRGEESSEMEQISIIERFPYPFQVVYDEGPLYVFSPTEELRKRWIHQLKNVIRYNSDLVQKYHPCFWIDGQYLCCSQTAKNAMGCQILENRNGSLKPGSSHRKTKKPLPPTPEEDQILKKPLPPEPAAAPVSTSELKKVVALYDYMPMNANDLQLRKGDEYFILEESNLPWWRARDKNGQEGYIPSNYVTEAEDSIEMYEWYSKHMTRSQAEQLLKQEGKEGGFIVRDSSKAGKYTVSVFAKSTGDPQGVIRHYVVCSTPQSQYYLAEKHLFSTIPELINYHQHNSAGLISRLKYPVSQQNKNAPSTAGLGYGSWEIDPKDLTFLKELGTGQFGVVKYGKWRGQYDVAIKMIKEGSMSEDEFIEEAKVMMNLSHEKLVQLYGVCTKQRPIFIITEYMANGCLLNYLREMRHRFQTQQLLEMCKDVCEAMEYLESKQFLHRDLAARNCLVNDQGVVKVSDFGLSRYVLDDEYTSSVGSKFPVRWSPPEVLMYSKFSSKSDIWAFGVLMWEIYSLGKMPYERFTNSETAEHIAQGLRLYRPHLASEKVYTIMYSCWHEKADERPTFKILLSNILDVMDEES
Sequence of BTK (Q06187 whole entry): as above
Sequence of EGFR kinase (P00533 669-1210): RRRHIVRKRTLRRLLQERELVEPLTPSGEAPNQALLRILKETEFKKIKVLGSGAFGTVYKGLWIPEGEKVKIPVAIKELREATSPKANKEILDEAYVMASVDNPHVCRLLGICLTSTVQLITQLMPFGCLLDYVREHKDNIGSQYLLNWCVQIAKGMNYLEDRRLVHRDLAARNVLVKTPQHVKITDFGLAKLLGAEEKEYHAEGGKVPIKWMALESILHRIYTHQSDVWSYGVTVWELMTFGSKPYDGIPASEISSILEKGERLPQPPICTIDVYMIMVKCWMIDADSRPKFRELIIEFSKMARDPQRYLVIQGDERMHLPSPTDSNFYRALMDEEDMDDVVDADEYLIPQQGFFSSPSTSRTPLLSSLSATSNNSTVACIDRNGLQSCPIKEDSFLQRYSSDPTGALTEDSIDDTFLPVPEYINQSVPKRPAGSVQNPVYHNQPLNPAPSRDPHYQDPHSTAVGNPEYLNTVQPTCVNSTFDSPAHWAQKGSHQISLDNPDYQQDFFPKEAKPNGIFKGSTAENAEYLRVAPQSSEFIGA
Sequence of BTK(C481S) kinase (Q06187 whole entry C481S): as the sequence (Q06187 whole entry) above, with C481S counted along it

Row | Dmax (BTK) [%] | pIC50 (BTK(WT) kinase) | pIC50 (BTK(C481S) kinase) | pIC50 (EGFR kinase) | Mouse liver microsome Residuals at 60 min [1] [%] | Human liver microsome Residuals at 60 min [2] [%] | clearance (Mouse pharmacokinetics; [3]) [mL/min/kg] | half-life (Mouse pharmacokinetics; [3]) [h] | AUC (Mouse pharmacokinetics; [3]) [ng·h/mL] | half-life (Mouse pharmacokinetics; [4]) [h] | AUC (Mouse pharmacokinetics; [4]) [ng·h/mL] | Cmax (Mouse pharmacokinetics; ICR, mouse, plasma, po, 10 mg/kg, Mouse i.g. 10 mpk, read-out: Cmax) [ng/mL] | F (Mouse pharmacokinetics; Mouse i.g. 10 mpk) [%] | Compound | pIC50 (TMD8-BTK(C481S) cells; 72 h) | pIC50 (TMD8-BTK(C481S) cells) | TGI d 17 (TMD-8 xenograft tumors; 16 days, tumor weight on day 17) [%] | TV on d 0 Mean ± SD (TMD-8 xenograft tumors; day 0 (baseline at grouping)) [mm^3] | TV on d 12 Mean ± SD (TMD-8 xenograft tumors; day 12) [mm^3] | TV on d 15 Mean ± SD (TMD-8 xenograft tumors; day 15) [mm^3]
1 | > 90 | 8.27 | 8.04 | 6.55 | 47.0 |  |  |  |  |  |  |  |  | CN1CCN([C@@H]2CCCN(c3cnc(C(N)=O)c(Nc4ccc(C5CCC6(CC5)CC(N5CCc7ccc8c(C9CCC(=O)NC9=O)noc8c7CC5)C6)cc4)n3)C2)C1=O (some centres unmarked) [Compound 59] | 7.92 |  |  |  |  | 
2 |  |  |  |  | 85.0 | 80.0 | 2 | 2.6 | 8030 | 7 | 41400 | 2730 | 51.6 | NC(=O)c1ncc(N2CCCCC2)nc1Nc1ccc(C2CCN(C3Cc4ccc5c(C6CCC(=O)NC6=O)noc5c4C3)CC2)cc1 (centres unmarked) [Compound 69] |  | 8.24 | 96.4 | 226 ± 21 | 246 ± 56 | 199 ± 72
3 | > 90 | 9.38 | 9.09 | 7.16 | 63.1 |  |  |  |  |  |  |  |  | CN1CCN([C@@H]2CCCN(c3cnc(C(N)=O)c(Nc4ccc(C5CCC6(CC5)CCN(CC5Cc7ccc8c(C9CCC(=O)NC9=O)noc8c7C5)CC6)cc4)n3)C2)C1=O (some centres unmarked) [Compound 50] | 8.40 |  |  |  |  | 
